Several values for one entry are separate records, joined by “and”; a condition that tells them apart may be missing. Equal entries are not always repeated. Where two headings read alike, the source gives them in different places.
Experiments:
[1] = molecular target: T1, QUAD RSV L-P (M628L, A789V, L795I, I796V) (Human respiratory syncytial virus A, UniProt P28887, A789V/I796V/L795I/M628L); assay: Single nucleotide incorporation (primer extension) by recombinant RSV L-P, QUAD mutant; assay type: biochemical; conditions: for Resistance (QUADdiscrimination / WTdiscrimination): QUAD vs WT RSV L-P; for Km / Discrimination (Km NTP analog / Km NTP): QUAD RSV L-P; for Km: single nucleotide incorporation
WT RSV L-P [2] = molecular target: T2, WT RSV L-P (Human respiratory syncytial virus A, UniProt P28887); assay type: biochemical
T2 construct: made in house; host or cells: insect cells
Method: The recombinant RSV polymerase complex was produced by co-expressing the L and P proteins of RSV in insect cells as previously described. Unless otherwise specified, RNA polymerase reaction samples consisted of 0.2 μM of an oligonucleotide template sequence derived from the RSV leader promoter (5'-[…]-3') and 0.2 μM recombinant RSVL-P polymerase together with 200 μM 5'-pACGC primer, mixed in a buffer containing 20 mM Tris pH 7.5, 10 mM KCl, 2 mM dithiothreitol, 0.5% triton X-100, 10% DMSO, 0.2 U/μL RNasin (Ambion), and 6 mM MgCl2. Reactions were started by adding specific NTPs to a final volume of 10 μL and incubated at 30°C. The radioisotope tracer used for this assay was α^33P-GTP. To measure the incorporation of GTP analogs, the oligonucleotide template sequence was modified to 5'-[…]-3'. Reactions were stopped after 30 minutes by adding an equal volume of gel loading buffer (Ambion). Samples were denatured at 95°C for 5 minutes, and run for 1.5 hours at 80 W in a 22.5% polyacrylamide urea sequencing gel. After the gel was dried, the product of migration was exposed to a phosphor-screen and scanned on a Typhoon phosphorimager (GE Healthcare) and quantified using ImageQuant (GE Healthcare). For each enzyme, the level of NTP analog discrimination was calculated as Km NTP analog / Km NTP, and the corresponding resistance as Mutantdiscrimination / WTdiscrimination.

[3] = test system: QUAD RSV L polymerase-dependent luciferase activity; assay: cells; assay type: cell-based, Respiratory syncytial virus (RSV), HEp-2 cells
[4] = test system: WT RSV L polymerase-dependent luciferase activity; assay: cells; assay type: cell-based, Respiratory syncytial virus (RSV); conditions: human respiratory syncytial virus, HEp-2 cells, minigenome luciferase
[5] = test system: [N-]=[N+]=N[C@]1(COP(=O)(O)OP(=O)(O)OP(=O)(O)O)O[C@@H](n2ccc(N)nc2=O)[C@H](F)[C@@H]1O; assay: purified protein, by the assay type; conditions: pH 7.5
[6] = test system: Nc1ccn([C@@H]2O[C@](CCl)(COP(=O)(O)OP(=O)(O)OP(=O)(O)O)[C@@H](O)[C@H]2O)c(=O)n1; assay: purified protein, by the assay type; conditions: pH 7.5
RSV L-P dimer = molecular target: T3, RSV L-P dimer (Human respiratory syncytial virus A, UniProt P28887); assay: Ni-NTA pull-down assay of RSV L-P; assay type: binding; conditions: 10 μM, 30 minutes pre-incubation
T3 construct: made in house; host or cells: insect cells
Method: The enzyme-inhibitor complex was pre-incubated for 30 minutes, after which nickel beads were used to pull down the histidine-tagged P subunit. The bound protein was washed on the beads and visualized by SDS PAGE. When the experiment was performed in the presence of DMSO, the untagged L subunit remained noncovalently bound to P (Fig 6A, lane 1).
Beads were collected by centrifugation, and washed in 500 μL buffer containing 20mM Tris pH 7.5, 10 mM KCl, 6 mM MgCl2, 0.01% Triton X-100, and 2 mM DTT. Beads were resuspended in 20 μL loading buffer (4% SDS, 20% glycerol, 0.12M Tris pH 7, and 10% BME) and heated for 5 minutes at 95°C. Samples were run on a 4% to 12% SDS PAGE gel alongside PageRuler prestained marker (Invitrogen) and stained using SimplyBlue SafeStain (Thermo Fisher Scientific).

WT RSV L-P [7] = molecular target: T2, WT RSV L-P; assay type: biochemical; conditions: 10 μM
[8] = molecular target: RSV polymerase containing the Y1631H mutation in the L subunit (Human respiratory syncytial virus A, UniProt P28887, Y1631H); assay: Biotin-primer extension RdRp assay, Y1631H; assay type: biochemical; conditions: Y1631H IC50 vs WT IC50
[9] = molecular target: T1, QUAD RSV L-P (M628L, A789V, L795I, I796V); conditions: cited from earlier work
Y1631H RSV polymerase = Y1631H RSV polymerase (Human respiratory syncytial virus A, UniProt P28887, Y1631H); assay: Single nucleotide incorporation, Y1631H mutant; assay type: biochemical
WT RSV L-P [10] = molecular target: T2, WT RSV L-P; conditions: cited from earlier work
[11] = WT RSV L-P, single nucleotide incorporation

With `CSC[C@]1(COP(=O)(O)OP(=O)(O)OP(=O)(O)O)O[C@@H](n2ccc(N)nc2=O)[C@H](F)[C@@H]1O` [methyl-thio-methyl (CH3SCH2)] the “Resistance (QUADdiscrimination / WTdiscrimination)” value [1] was “no resistance”.
With `C[C@@H](F)[C@]1(COP(=O)(O)OP(=O)(O)OP(=O)(O)O)O[C@@H](n2ccc(N)nc2=O)[C@H](F)[C@@H]1O` [1-fluoroethyl (FCH3CH2)] the “Resistance (QUADdiscrimination / WTdiscrimination)” value [1] was over 3 fold.
For ATP [reference compound], the Km [1] was 1.8 ± 0.3 µM and the Km (WT RSV L-P [2]; [11]) was 2.2 ± 0.2 µM.
With 2'F-4'ClCH2-ATP the “Discrimination (Km NTP analog / Km NTP)” value [1] was 12.9±1.1 fold, the Km [1] was 23.6 ± 5.8 µM and the “Resistance (QUADdiscrimination / WTdiscrimination)” value [1] was 1.1 fold. The Chain termination effect (WT RSV L-P [2]) was “immediate chain terminator”, the “Discrimination (Km NTP analog / Km NTP)” value (WT RSV L-P [2]) was 12 fold and 12±2.5 fold and the Km (WT RSV L-P [2]) was 27 ± 7.8 µM.
With `Nc1ccn([C@@H]2O[C@@](COP(=O)(O)OP(=O)(O)OP(=O)(O)O)(C3CC3)[C@@H](O)[C@H]2F)c(=O)n1` [cyclopropyl (CH2CH2CH2)] the “Resistance (QUADdiscrimination / WTdiscrimination)” value [1] was “no resistance”.
In the case of `Nc1ccn([C@@H]2O[C@@](CO)(CBr)[C@@H](O)[C@H]2F)c(=O)n1` [2'F-4'BrCH2-cytidine], the “Loss in inhibition potency in the presence of the QUAD mutations” value ([3]; QUAD vs WT minigenome) is reported as 47 fold and the EC50 [4] is reported as 1600 ± 600 nM.
Work on (Human respiratory syncytial virus A2) yielded a Km [5] of 0.62 ± 0.042 µM and a Km [6] of 19.7 ± 6.7 µM.
In the case of `Nc1ccn([C@@H]2O[C@](CF)(COP(=O)(O)OP(=O)(O)OP(=O)(O)O)[C@@H](O)[C@H]2F)c(=O)n1` [fluoromethyl (FCH2)], the “Resistance (QUADdiscrimination / WTdiscrimination)” value [1] is reported as over 3 fold.
With `O=C(NC1CC1)c1cc2c(s1)-c1ccccc1N(C(=O)c1ccc(NC(=O)c3cccnc3N3CCC4(CC3)COC4)cc1)CC2` [AZ-27] the “Effect on L binding to P (L-P complex stability)” value (RSV L-P dimer) was “did not inhibit the ability of L to bind to P”, the “Inhibition of +1 and +2 RNA products” value (WT RSV L-P [7]; 30-minute reaction) was “no inhibition” and the “Inhibition of +4–7 RNA products” value (WT RSV L-P [7]; 30-minute reaction, position +4 and beyond) was 75–85%. For the same compound, the “Inhibition behavior with respect to NTPs” value (WT RSV L-P [7]; ATP+CTP from 1 to 100 μM) was “non-competitive inhibition behavior” and the “Resistance compared to the WT enzyme” value [8] was 940 fold.
For `Nc1ccn([C@@H]2O[C@](CCl)(COP(=O)(O)OP(=O)(O)OP(=O)(O)O)[C@@H](O)[C@H]2F)c(=O)n1` [ALS-8112-TP, 2'F-4'ClCH2-cytidine triphosphate], the “Resistance (increase in discrimination by QUAD)” value ([9]; QUAD vs WT RSV L-P) is listed as 4.6 fold, the “Discrimination of the CTP analog” value (Y1631H RSV polymerase) is listed as 18 fold and the “Resistance (QUADdiscrimination / WTdiscrimination)” value ([1]; listed as chloromethyl (ClCH2)) is listed as over 3 fold. The Discrimination (WT RSV L-P [10]; WT RSV polymerase) was 13 fold.
With 2'F-4'ClCH2-GTP the “Discrimination (Km NTP analog / Km NTP)” value [1] was 94.4 fold and 94.4±17.7 fold, the Km [1] was 31.1 ± 15 µM and the “Resistance (QUADdiscrimination / WTdiscrimination)” value [1] was 17 fold. For the same compound, the Chain termination effect (WT RSV L-P [2]) was “did not completely block RNA synthesis”, the “Discrimination (Km NTP analog / Km NTP)” value (WT RSV L-P [2]) was 5.6±0.6 fold and the Km (WT RSV L-P [2]) was 5.8 ± 1.4 µM.
For `[N-]=[N+]=N[C@]1(CO)O[C@@H](n2ccc(N)nc2=O)[C@H](F)[C@@H]1O` [2'F-4'N3-cytidine], the EC50 ([3]; human respiratory syncytial virus, QUAD L, HEp-2 cells, minigenome luciferase) was 2200 ± 500 nM and the EC50 [4] was 1300 ± 300 nM.
In the case of `Nc1ccn([C@@H]2O[C@](CBr)(COP(=O)(O)OP(=O)(O)OP(=O)(O)O)[C@@H](O)[C@H]2F)c(=O)n1` [bromomethyl (BrCH2)], the “Resistance (QUADdiscrimination / WTdiscrimination)” value [1] is reported as over 3 fold.
For CTP [reference compound], the Km ([9]; QUAD RSV L-P, n = 2, read-out: Km CTP) is given as 0.028 ± 0.005 µM, the Km (Y1631H RSV polymerase) is given as 0.042 ± 0.009 µM and the Km (WT RSV L-P [10]; WT RSV L-P, n = 4, read-out: Km CTP) is given as 0.056 ± 0.01 µM.
In the case of `[N-]=[N+]=N[C@]1(COP(=O)(O)OP(=O)(O)OP(=O)(O)O)O[C@@H](n2ccc(N)nc2=O)[C@H](F)[C@@H]1O` [2'F-4'N3-CTP], the “Resistance (QUADdiscrimination / WTdiscrimination)” value ([1]; listed as azido (N3-)) is reported as “no resistance”.
Compound GTP [reference compound] has a Km [1] of 0.3 ± 0.1 µM and a Km (WT RSV L-P [2]; [11]) of 1.1 ± 0.4 µM.

— PMC4862670, “Biochemical Effect of Resistance Mutations against Synergistic Inhibitors of RSV RNA Polymerase” (PLoS ONE, 2016)
